The values that follow come from EP4692114A1, “CALCITONIN ANALOGUE, AND DERIVATIVE THEREOF AND USE THEREOF” (Hangzhou Sciwind Biosciences Co., Ltd., priority 2023, dated 2024).

The data set is described as follows: Heat accelerated stability assay under a neutral condition. Type of data set: physicochemical. The following applies: pH about 7.4, 40°C; for Changes in characteristics or properties, 0d / Changes in characteristics or properties, 7d: 1 mg/mL, phosphate; for Concentration change (7d-0d)/%: Day 7 vs Day 0, reversed phase chromatography; for Purity Change% (7d-0d) / Purity Change% (26d-0d): purity from reversed phase chromatography-214 nm; for Purity Change% (7d-0d): Day 7 vs Day 0; for Purity Change% (26d-0d): Day 26 vs Day 0. The method, then:
The lyophilized powder (1 mg/mL) of calcitonin analogues or derivatives prepared in accordance with the method of Example 1 were mixed with sodium dihydrogen phosphate (1.42 mg/mL) and dissolved in ultrapure water in the indicated mass-volume ratios. After adjusting pH to about 7.4 with hydrochloric acid/sodium hydroxide, the solution was filtered into a sterilized vial in a clean bench using a 0.22 µm sterile filter. The vial was then capped and placed into the stability test chamber at 40°C. Detections were made on Days 7 (7d) and 26 (26d), and during the assay, changes in the characteristics and properties of the polypeptides were observed and recorded. The sample was then centrifuged for 3 min at 10000 rpm at 4°C, and the supernatant was transferred to a liquid phase sample vial for detecting the concentration and purity of the polypeptides using liquid phase chromatography described as below, wherein the concentration of the polypeptide = peak area/injection volume/extinction coefficient/60×flow rate, and the purity of the polypeptide = target peak area/total peak area× 100%.
Conditions of the reversed phase chromatography Flow rate: 1.0 ml/min; Autosampler temperature: 15°C; Column temperature: 25°C; Detection wavelengths: 280 nm and 214 nm; Mobile phase A: 100% H2O+0.05% TFA; Mobile phase B: 100% ACN; and Gradient of elution listed in Table 4: Table 4. Listing of the gradient of elution in the liquid phase chromatography
Results were shown below in Tables 5, 6, and 7. A difference of more than 5% in content as compared with the initial value was typically assumed (for example, as prescribed by the Chinese Pharmacopeia (2020 Edition)) to be a significant change. Within a reasonable margin of error, a decrease of less than 1% from the initial value to the detected content is denoted as "no change" below. Table 5. Changes in characteristics or properties in the heat accelerated stability assay

*1 amine or outer side, *2 acyl side, *3 side chain or, on linkers, in order; H or OH if unused. Where a SMILES comes first, the peptide text is derived from it. The star is where a group is joined. C22 diacid = O=C(O)CCCCCCCCCCCCCCCCCCCCC(=O)*; C20 diacid = O=C(O)CCCCCCCCCCCCCCCCCCC(=O)*; C18 diacid = O=C(O)CCCCCCCCCCCCCCCCC(=O)*; C16 diacid = O=C(O)CCCCCCCCCCCCCCC(=O)*; γGlu = O=C(O)[C@H](CCC(=O)[*:2])N[*:1]; Trx = NC[C@H]1CC[C@H](C(=O)O)CC1; Inp = O=C(O)C1CCNCC1

As for `CC(C)C[C@H](NC(=O)[C@H](CCCNC(=N)N)NC(=O)CNC(=O)[C@H](CC(C)C)NC(=O)[C@@H](NC(=O)[C@H](C)NC(=O)[C@@H](NC(=O)[C@H](CO)NC(=O)[C@H](CC(C)C)NC(=O)[C@H](CCC(N)=O)NC(=O)[C@H](CO)NC(=O)[C@H](C)NC(=O)CC[C@H](NC(=O)CCCCCCCCCCCCCCCCCCCCC(=O)O)C(=O)O)[C@@H](C)O)C(C)C)C(=O)N[C@@H](CO)C(=O)N[C@@H](CC(=O)O)C(=O)N[C@@H](CCC(=O)O)C(=O)N[C@@H](CC(C)C)C(=O)N[C@@H](Cc1c[nH]cn1)C(=O)N[C@@H](CCCNC(=N)N)C(=O)N[C@@H](CC(C)C)C(=O)N[C@@H](CCC(N)=O)C(=O)N[C@@H](CC(=O)O)C(=O)N[C@@H](Cc1ccc(O)cc1)C(=O)N1CCC[C@H]1C(=O)N[C@@H](CCCNC(=N)N)C(=O)N[C@H](C(=O)N[C@@H](CC(=O)O)C(=O)N[C@H](C(=O)NCC(=O)N[C@@H](CO)C(=O)NCC(=O)N[C@@H](CO)C(=O)N1CCC[C@H]1C(N)=O)C(C)C)[C@@H](C)O` [M38] ({C22 diacid-γGlu}-ASQLSTAVLGRLSDELHRLQDYPRTDVGSGSP-NH2), the “Changes in characteristics or properties, 0d” value (shortened to “Changes … 0d”) is “Clear”; the “Changes in characteristics or properties, 7d” value (shortened to “Changes … 7d”) is recorded as “Clear”; the “Concentration change (7d-0d)/%” value is recorded as “No change (a decrease of less than 1% from the initial value to the detected content is denoted as "no change")”; the “Purity Change% (7d-0d)” value is reported as “No change (a decrease of less than 1% from the initial value to the detected content is denoted as "no change")”. Further, the “Purity Change% (26d-0d)” value is recorded as “No change (a decrease of less than 1% from the initial value to the detected content is denoted as "no change")”.

Turning to `CC(C)C[C@H](NC(=O)[C@H](CCCNC(=N)N)NC(=O)CNC(=O)[C@H](CC(C)C)NC(=O)[C@@H](NC(=O)[C@H](C)NC(=O)[C@@H](NC(=O)[C@H](CO)NC(=O)[C@H](CC(C)C)NC(=O)[C@H](CCC(N)=O)NC(=O)[C@H](CO)NC(=O)[C@H](C)NC(=O)C1CCN(C(=O)CCCCCCCCCCCCCCCCC(=O)O)CC1)[C@@H](C)O)C(C)C)C(=O)N[C@@H](CO)C(=O)N[C@@H](CC(=O)O)C(=O)N[C@@H](CCC(=O)O)C(=O)N[C@@H](CC(C)C)C(=O)N[C@@H](Cc1c[nH]cn1)C(=O)N[C@@H](CCCNC(=N)N)C(=O)N[C@@H](CC(C)C)C(=O)N[C@@H](CCC(N)=O)C(=O)N[C@@H](CC(=O)O)C(=O)N[C@@H](Cc1ccc(O)cc1)C(=O)N1CCC[C@H]1C(=O)N[C@@H](CCCNC(=N)N)C(=O)N[C@H](C(=O)N[C@@H](CC(=O)O)C(=O)N[C@H](C(=O)NCC(=O)N[C@@H](CO)C(=O)NCC(=O)N[C@@H](CO)C(=O)N1CCC[C@H]1C(N)=O)C(C)C)[C@@H](C)O` [M48] ({C18 diacid-Inp}-ASQLSTAVLGRLSDELHRLQDYPRTDVGSGSP-NH2), the “Changes … 0d” value is “Clear”; the “Changes … 7d” value is on record as “Clear”; the “Concentration change (7d-0d)/%” value is given as -1.678%; the “Purity Change% (7d-0d)” value is given as -1%. For the same compound, the “Purity Change% (26d-0d)” value is listed as -3.9%.

Take `CC(C)C[C@H](NC(=O)[C@H](CCCNC(=N)N)NC(=O)CNC(=O)[C@H](CC(C)C)NC(=O)[C@@H](NC(=O)[C@H](C)NC(=O)[C@@H](NC(=O)[C@H](CO)NC(=O)[C@H](CC(C)C)NC(=O)[C@H](CCC(N)=O)NC(=O)[C@H](CO)NC(=O)[C@H](C)NC(=O)CC[C@H](NC(=O)CCCCCCCCCCCCCCC(=O)O)C(=O)O)[C@@H](C)O)C(C)C)C(=O)N[C@@H](CO)C(=O)N[C@@H](CC(=O)O)C(=O)N[C@@H](CCC(=O)O)C(=O)N[C@@H](CC(C)C)C(=O)N[C@@H](Cc1c[nH]cn1)C(=O)N[C@@H](CCCNC(=N)N)C(=O)N[C@@H](CC(C)C)C(=O)N[C@@H](CCC(N)=O)C(=O)N[C@@H](CC(=O)O)C(=O)N[C@@H](Cc1ccc(O)cc1)C(=O)N1CCC[C@H]1C(=O)N[C@@H](CCCNC(=N)N)C(=O)N[C@H](C(=O)N[C@@H](CC(=O)O)C(=O)N[C@H](C(=O)NCC(=O)N[C@@H](CO)C(=O)NCC(=O)N[C@@H](CO)C(=O)N1CCC[C@H]1C(N)=O)C(C)C)[C@@H](C)O` [M40] ({C16 diacid-γGlu}-ASQLSTAVLGRLSDELHRLQDYPRTDVGSGSP-NH2): the “Changes … 0d” value was “Clear”; the “Changes … 7d” value is on record as “Clear”; the “Concentration change (7d-0d)/%” value is on record as -2.280%; the “Purity Change% (7d-0d)” value is listed as -1.67%. Further, the “Purity Change% (26d-0d)” value is listed as -4.82%.

`CC(C)C[C@H](NC(=O)[C@H](CCCNC(=N)N)NC(=O)CNC(=O)[C@H](CC(C)C)NC(=O)[C@@H](NC(=O)[C@H](C)NC(=O)[C@@H](NC(=O)[C@H](CO)NC(=O)[C@H](CC(C)C)NC(=O)[C@H](CCC(N)=O)NC(=O)[C@H](CO)NC(=O)[C@H](C)NC(=O)C1CCN(C(=O)CCCCCCCCCCCCCCCCCCC(=O)O)CC1)[C@@H](C)O)C(C)C)C(=O)N[C@@H](CO)C(=O)N[C@@H](CC(=O)O)C(=O)N[C@@H](CCC(=O)O)C(=O)N[C@@H](CC(C)C)C(=O)N[C@@H](Cc1c[nH]cn1)C(=O)N[C@@H](CCCNC(=N)N)C(=O)N[C@@H](CC(C)C)C(=O)N[C@@H](CCC(N)=O)C(=O)N[C@@H](CC(=O)O)C(=O)N[C@@H](Cc1ccc(O)cc1)C(=O)N1CCC[C@H]1C(=O)N[C@@H](CCCNC(=N)N)C(=O)N[C@H](C(=O)N[C@@H](CC(=O)O)C(=O)N[C@H](C(=O)NCC(=O)N[C@@H](CO)C(=O)NCC(=O)N[C@@H](CO)C(=O)N1CCC[C@H]1C(N)=O)C(C)C)[C@@H](C)O` [M47] ({C20 diacid-Inp}-ASQLSTAVLGRLSDELHRLQDYPRTDVGSGSP-NH2): the “Changes … 0d” value was “Clear”; the “Changes … 7d” value is reported as “Clear”; the “Concentration change (7d-0d)/%” value is given as -3.488%; the “Purity Change% (7d-0d)” value was “No change (a decrease of less than 1% from the initial value to the detected content is denoted as "no change")”. The “Purity Change% (26d-0d)” value is “No change (a decrease of less than 1% from the initial value to the detected content is denoted as "no change")”.

In the case of `CC(C)C[C@H](NC(=O)[C@H](CCCNC(=N)N)NC(=O)CNC(=O)[C@H](CC(C)C)NC(=O)[C@@H](NC(=O)[C@H](C)NC(=O)[C@@H](NC(=O)[C@H](CO)NC(=O)[C@H](CC(C)C)NC(=O)[C@H](CCC(N)=O)NC(=O)[C@H](CO)NC(=O)[C@H](C)NC(=O)[C@H]1CC[C@H](CNC(=O)CCCCCCCCCCCCCCCCC(=O)O)CC1)[C@@H](C)O)C(C)C)C(=O)N[C@@H](CO)C(=O)N[C@@H](CC(=O)O)C(=O)N[C@@H](CCC(=O)O)C(=O)N[C@@H](CC(C)C)C(=O)N[C@@H](Cc1c[nH]cn1)C(=O)N[C@@H](CCCNC(=N)N)C(=O)N[C@@H](CC(C)C)C(=O)N[C@@H](CCC(N)=O)C(=O)N[C@@H](CC(=O)O)C(=O)N[C@@H](Cc1ccc(O)cc1)C(=O)N1CCC[C@H]1C(=O)N[C@@H](CCCNC(=N)N)C(=O)N[C@H](C(=O)N[C@@H](CC(=O)O)C(=O)N[C@H](C(=O)NCC(=O)N[C@@H](CO)C(=O)NCC(=O)N[C@@H](CO)C(=O)N1CCC[C@H]1C(N)=O)C(C)C)[C@@H](C)O` [M46] ({C18 diacid-Trx}-ASQLSTAVLGRLSDELHRLQDYPRTDVGSGSP-NH2), the “Changes … 0d” value was “Clear”; the “Changes … 7d” value was “Clear”; the “Concentration change (7d-0d)/%” value is recorded as “No change (a decrease of less than 1% from the initial value to the detected content is denoted as "no change")”; the “Purity Change% (7d-0d)” value was “No change (a decrease of less than 1% from the initial value to the detected content is denoted as "no change")”. For the same compound, the “Purity Change% (26d-0d)” value is -5.67%.

On to `CC(C)C[C@H](NC(=O)[C@H](CCCNC(=N)N)NC(=O)CNC(=O)[C@H](CC(C)C)NC(=O)[C@@H](NC(=O)[C@H](C)NC(=O)[C@@H](NC(=O)[C@H](CO)NC(=O)[C@H](CC(C)C)NC(=O)[C@H](CCC(N)=O)NC(=O)[C@H](CO)NC(=O)[C@H](C)NC(=O)[C@H]1CC[C@H](CNC(=O)CCCCCCCCCCCCCCCCCCC(=O)O)CC1)[C@@H](C)O)C(C)C)C(=O)N[C@@H](CO)C(=O)N[C@@H](CC(=O)O)C(=O)N[C@@H](CCC(=O)O)C(=O)N[C@@H](CC(C)C)C(=O)N[C@@H](Cc1c[nH]cn1)C(=O)N[C@@H](CCCNC(=N)N)C(=O)N[C@@H](CC(C)C)C(=O)N[C@@H](CCC(N)=O)C(=O)N[C@@H](CC(=O)O)C(=O)N[C@@H](Cc1ccc(O)cc1)C(=O)N1CCC[C@H]1C(=O)N[C@@H](CCCNC(=N)N)C(=O)N[C@H](C(=O)N[C@@H](CC(=O)O)C(=O)N[C@H](C(=O)NCC(=O)N[C@@H](CO)C(=O)NCC(=O)N[C@@H](CO)C(=O)N1CCC[C@H]1C(N)=O)C(C)C)[C@@H](C)O` [M45] ({C20 diacid-Trx}-ASQLSTAVLGRLSDELHRLQDYPRTDVGSGSP-NH2), for which the “Changes … 0d” value is recorded as “Clear”; the “Changes … 7d” value is on record as “Clear”; the “Concentration change (7d-0d)/%” value is -2.670%; the “Purity Change% (7d-0d)” value is given as “No change (a decrease of less than 1% from the initial value to the detected content is denoted as "no change")”. For the same compound, the “Purity Change% (26d-0d)” value was -1.77%.
